Columns and labels:
[1] = tested on: Human hair follicle dermal papillar cells; experiment: Proliferation of human hair follicle dermal papilla cells (MTT); format: cell-based; details: 0, 10 and 100 μM, 72 hours, FIG. 1
Experimental: Human hair follicle dermal papillar cells (Application, Inc., USA) were seeded into a 6-well micro plate containing DMEM medium (Gibco, USA) with FBS at a density of 3×10^5 cells per well, and then were cultured in a 5% CO2 incubator at 37° C. for 24 hours. The next day, the cells were washed once with serum-free medium, and the medium was replaced with serum-free medium. Then, the cells were treated with 0, 10 and 100 μM of veratric acid, followed by incubating for 72 hours, after which the cells were washed once with serum-free medium, the medium was replaced with serum-free medium containing 10% MTT, and after 3 hours, the optical density (O.D.) value was measured and calculated as a percentage of control.

[2] = tested on: insulin-like growth factor-1 (IGF-1); experiment: IGF-1 secretion of hair follicle dermal papilla cells (ELISA); format: cell-based, Human; details: 0, 10 and 100 μM, 48 hours; FIG. 2
Experimental: (§1) Human hair follicle dermal papillar cells (Application, Inc., USA) were seeded into a 24-well micro plate at density of 7.5×10^4 cells per well, and then were cultured in a 5% CO2 incubator at 37° C. for 24 hours. Then, the medium was replaced with serum-free medium, followed by being cultured for 16 hours. Then, each well was treated with 0, 10 and 100 μM of veratric acid, after which the cells were incubated for 48 hours. Then, the cell culture media were collected.
The secretion rate of growth factor insulin-like growth factor-1 (IGF-1) was determined by measuring the amount of secretion rate of IGF-1 using Insulin-like growth factor-1 quantikine ELISA kit (DG100, R&D system, USA).

[3] = tested on: transforming growth factor-beta1 (TGF-beta1); experiment: Inhibition of TGF-beta1 production in hair follicle dermal papilla cells (ELISA); format: cell-based, Human; details: 0, 10 and 100 μM, 48 hours; FIG. 3
Experimental: as §1, with “plate at a density of” for “plate at density of”
The secretion rate of transforming growth factor-beta1 (TGF-beta1) was determined by measuring the amount of secretion rate of TGF-beta1 using Human LAP TFG-beta1 ELISA kit (ab100647, abcam, USA).

[4] = tested on: procollagen type I C-peptide (PICP); experiment: Collagen synthesis in human normal fibroblasts (PICP EIA); format: cell-based; details: 0, 1, 10 and 100 μM, 24 hours; FIG. 4
Experimental: Human normal fibroblasts (Department of Dermatology, Ajou University) were seeded into a 24-well micro plate containing DMEM medium at a density of about 2×10^5 cells per well, and were cultured in a 5% CO2 incubator at 37° C. for 24 hours. Then, the medium was removed from each well of the plate, and each well was treated with 0, 1, 10 and 100 μM concentrations of veratric acid, after which the cells were cultured for 24 hours. Then, the cell medium was collected, thereby preparing samples.
The amounts of collagen synthesis in the above-prepared samples was determined by measuring the amount of procollagen type I C-peptide (PICP) using a Procollagen Type I C-peptide EIA kit (MK101; Takara, Kyoto, Japan).

[5] = tested on: Keratinocyte (HaCaT); experiment: UV-preventing effect, cell viability after UVB (MTT), keratinocytes; format: cell-based; details: pretreated 0, 1, 10 and 100 μM 24 hours, UVB 20 mJ/cm^2, 48 hours; FIG. 6
Experimental: (§2) Keratinocyte (HaCaT) and fibroblast were cultured in DMEM medium containing penicillin-streptomycin and serum. Then, the cells were seeded into a 12-well micro plate at density of about 1×10^5 cells per well, and were cultured in a 5% CO2 incubator at 37° C. until the cells attached about 80% over on well-area. Then, each well was pretreated with 0, 1, 10 and 100 μM of veratric acid, and after 24 hours, the medium was replaced with PBS, and then the cells were irradiated with UV (UVB 20 mJ/cm^2). Then, the UV-irradiated cells were replaced DMEM medium containing penicillin-streptomycin and serum, the cells were incubated for 48 hours. The cell viability was determined by measuring the viability of keratinocyte (HaCaT) and fibroblast using a MTT assay (30-1010K, ATCCTM).

[6] = tested on: fibroblast; experiment: UV-preventing effect, cell viability after UVB (MTT), fibroblasts; format: cell-based; details: pretreated 0, 1, 10 and 100 μM 24 hours, UVB 20 mJ/cm^2, 48 hours; FIG. 5
Experimental: as §2

[7] = tested on: collagenase (MMP-1); experiment: Inhibition of collagenase production in human normal fibroblasts (MMP-1 ELISA); format: cell-based; details: 0, 1, 10 and 100 μM, 24 hours; FIG. 7
Experimental: Human normal fibroblasts (Department of Dermatology, Ajou University) were seeded into a 24-well micro plate containing DMEM medium at a density of about 2×10^5 cells per well, and were then cultured in a 5% CO2 incubator at 37° C. for 24 hours. Then, the medium was removed from each well, and the cells were treated with 0, 1, 10 and 100 μM concentrations of veratric acid. Then, the cells were cultured for 24 hours, after which the cell culture media were collected, thereby preparing samples.
The inhibition effects of collagenase production was determined by measuring the amount of collagenase using MMP-1 ELISA kit (QIA55, Merck, Germany).

[8] = tested on: human skin; experiment: Wrinkle-reducing effect of nourishing cream, skin elasticity; format: in vivo; details: face, twice a day, 3 months, scale 0 to 5
Experimental: Specifically, an aqueous phase including purified water, triethanolamine, and propylene glycol was dissolved by heating to 70° C., and an oily phase including fatty acid, oily components, an emulsifier, and a preservative was dissolved by heating to 70° C. and added to the aqueous phase. Then, the resulting solution was cooled to 45° C., and veratric acid was added with in amounts of 0, 0.01, 0.05 and 1 wt % based on the total weight of the composition and was dispersed, followed by cooling to 30° C.
In the measurement of skin elasticity, nourishing creams described in Preparation Example 8-1 was applied to the face of 30 healthy women of 21 to 42 years old twice a day for 3 months. The control group was used nourishing cream containing purified water.
The effect on wrinkle reduction was evaluated by measuring a change in skin elasticity. The measurement of skin elasticity was performed with Coutometer SEM 474 (Courage+Khazaka, Cologne, Germany) under the conditions of constant temperature of 24˜26° C. and constant humidity of 38-40%. The evaluation criteria were as follows 0 indicating no improvement in skin elasticity, and 5 indicating improvement in skin elasticity.

[9] = tested on: hairless mice (Skh: HR-1); experiment: Wrinkle prevention by oral administration in UV-irradiated hairless mice (skin replicas); format: in vivo; details: 100 mg per kg oral, 5 weeks
Experimental: In order to measure the wrinkle-preventing effect of veratric acid, 6-7-week-old hairless mice (Skh: HR-1) were divided into a control group, a UV group and a UV/veratric acid group, each consisting of 8 animals, and were bred during the test period. The control group and the UV group were administered orally with 0.5 ml of saline, and the UV/veratric acid group was administered orally with a solution of 100 mg per kg veratric acid in 0.5 ml of saline.
The above-prepared samples were administered orally at the same point of time for 5 days a week for a total of 5 weeks. From 2 weeks to 5 weeks after oral administration, the UV group and the UV/veratric acid group were irradiated with UV light three times a week such that the total dose of UV radiation reached 600 mJ/cm^2.
To measure the wrinkle-preventing effect of veratric acid, skin replicas were taken from the back of the hairless mice using a silicon polymer before autopsy. In the same manner, after 5 weeks, skin replicas were taken from the groups treated with each of the samples. Using the taken skin replicas, the antiaging effect, i.e., wrinkle-reducing effect of each sample was measured.

[10] = UV/veratric acid group, UV total 600 mJ/cm^2

COc1ccc(C(=O)O)cc1OC [Veratric acid, 3,4-dimethoxybenzoic acid]
proliferation of human hair follicle dermal papilla cells (O.D. as percentage of control) [1]: increased the proliferation of human hair follicle dermal papilla cells in a concentration-dependent manner
IGF-1 secretion [2]: increased the IGF-1 secretion of human hair follicle dermal pailla cells in a concentration-dependent manner
TGF-beta1 production [3]: excellently inhibited TGF-beta1 production
collagen synthesis (PICP) [4]: increased collagen synthesis
cell death of UV-induced keratinocyte (cell viability) [5]: prevented cell death
cell death of UV-induced fibroblasts (cell viability) [6]: prevented cell death
collagenase production [7]: decreased collgenase production in human normal fibroblasts
Skin elasticity ([8]; veratric acid 0.01 wt %): 2.81
Skin elasticity ([8]; veratric acid 0.05 wt %): 3.12
Skin elasticity ([8]; veratric acid 1 wt %): 3.36
R-parameter value compared to the UV/control groups [9]: reduced
R1 value: Skin roughness [9, 10]: 0.462 ± 0.013
R2 value: Maximum roughness [9, 10]: 0.405 ± 0.011
R3 value: Average roughness [9, 10]: 0.219 ± 0.012
R4 value: Smoothness depth [9, 10]: 0.116 ± 0.010
R5 value: Arithmetic average roughness [9, 10]: 0.290 ± 0.013

Source: patent US9730872B2, “Method for improving skin conditions with veratric acid or acceptable salt thereof as an active ingredient” (Bio Spectrum, Inc., priority 2012, dated 2017)
